According to paper PMC12655172, “Borylated 5-Membered Ring Iminosugars: Synthesis and Biological Evaluation for Glycosidase Inhibition and Anticancer Properties for Application in Boron Neutron Capture Therapy (BNCT)—Part 2” (Pharmaceuticals, 2025):
Like-named read-outs stand apart in the source and are kept apart here.

Tests used:
[1] = system: T1, trehalase (porcine kidney); assay: Glycosidase inhibition (Table 2 panel); format: biochemical
T1 construct: purchased Sigma-Aldrich; host or cells: porcine kidney

[2] = system: T2, α-D-galactosidase (coffee beans); assay: Glycosidase inhibition (Table 2 panel); format: biochemical
T2 construct: purchased Sigma-Aldrich; host or cells: coffee beans
Procedure, shortened: (§1)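 Activity was measured with the matching para-nitrophenyl glycoside […] at each enzyme's optimum pH and stopped with Na2CO3 […]. Released para-nitrophenol was read at 400 nm. […]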

[3] = system: α-D-glucosidase (rat intestinal maltase); assay: Glycosidase inhibition (Table 2 panel); format: biochemical
[4] = target: α-D-glucosidase (rice) (Oryza sativa subsp. japonica, UniProt Q653V7); assay: Glycosidase inhibition (Table 2 panel); format: biochemical
[5] = system: T3, α-D-mannosidase (Jack bean); assay: Glycosidase inhibition (Table 2 panel); format: biochemical
T3 construct: purchased Sigma-Aldrich; host or cells: Jack bean
Procedure, shortened: as §1

[6] = system: α-L-rhamnosidase (P. decumbens); assay: Glycosidase inhibition (Table 2 panel); format: biochemical
Procedure, shortened: as §1

[7] = system: β-D-glucosidase (almond); assay: Glycosidase inhibition (Table 2 panel); format: biochemical
Procedure, shortened: as §1

[8] = target: T4, β-D-glucosidase (bovine liver) (Bos taurus, UniProt F1MNT6); assay: Glycosidase inhibition (Table 2 panel); format: biochemical
T4 sequence (F1MNT6 1-469): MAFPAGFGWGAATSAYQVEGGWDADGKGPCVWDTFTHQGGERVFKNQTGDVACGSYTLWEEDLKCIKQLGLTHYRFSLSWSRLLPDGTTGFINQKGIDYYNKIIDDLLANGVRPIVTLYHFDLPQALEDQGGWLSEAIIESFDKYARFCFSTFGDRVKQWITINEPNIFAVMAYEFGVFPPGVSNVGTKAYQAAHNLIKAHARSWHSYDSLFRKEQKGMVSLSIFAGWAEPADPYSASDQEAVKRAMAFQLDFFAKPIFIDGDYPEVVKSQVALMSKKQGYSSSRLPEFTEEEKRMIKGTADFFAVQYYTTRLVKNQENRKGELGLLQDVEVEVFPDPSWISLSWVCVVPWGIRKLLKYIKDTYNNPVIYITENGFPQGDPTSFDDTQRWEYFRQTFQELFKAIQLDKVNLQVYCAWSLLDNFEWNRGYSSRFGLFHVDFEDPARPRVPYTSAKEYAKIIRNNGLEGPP
Procedure, shortened: as §1

[9] = system: β-D-glucuronidase (bovine liver); assay: Glycosidase inhibition (Table 2 panel); format: biochemical
Procedure, shortened: as §1

[10] = system: β-D-mannosidase (snail); assay: Glycosidase inhibition (Table 2 panel); format: biochemical
Procedure, shortened: as §1

[11] = Sample appearance on sample preparation in water; format: physicochemical; conditions: 1 mL of water was added to 1 mg solid
[12] = system: A2780 (ovarian carcinoma); assay: Cancer screening, MTT growth inhibition; format: cell-based; conditions: for DOSE SCREEN percentage (%) cell growth inhibition A2780 Ovarian: 25 µM of drug; for GI50: read-out: DOSE RESPONSE GI50 A2780 Ovarian; for inhibition at 25 µM: A2780, 25 µM of drug, read-out: DOSE SCREEN percentage (%) cell growth inhibition A2780 Ovarian
Procedure, shortened: (§2)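 Growth inhibition is reported as mean ± SEM from three replicates run on separate occasions and cell passages. Cells grew in DMEM with 10% foetal bovine serum at 37 °C under 5% CO2 and were treated 24 h after seeding at 2500–4000 cells/well.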

[13] = system: A431 (skin carcinoma); assay: Cancer screening, MTT growth inhibition; format: cell-based; conditions: for DOSE SCREEN percentage (%) cell growth inhibition A431 Skin: 25 µM of drug; for GI50: read-out: DOSE RESPONSE GI50 A431 Skin; for inhibition at 25 µM: A-431, 25 µM of drug, read-out: DOSE SCREEN percentage (%) cell growth inhibition A431 Skin
Procedure, shortened: as §2

[14] = system: H460 (lung carcinoma); assay: Cancer screening, MTT growth inhibition; format: cell-based; conditions: for DOSE SCREEN percentage (%) cell growth inhibition H460 Lung: 25 µM of drug; for GI50: read-out: DOSE RESPONSE GI50 H460 Lung; for inhibition at 25 µM: NCI-H460, 25 µM of drug, read-out: DOSE SCREEN percentage (%) cell growth inhibition H460 Lung
Procedure, shortened: as §2

[15] = system: HT29 (colorectal carcinoma); assay: Cancer screening, MTT growth inhibition; format: cell-based; conditions: for DOSE SCREEN percentage (%) cell growth inhibition HT29 Colon: 25 µM of drug; for GI50: read-out: DOSE RESPONSE GI50 HT29 Colon; for inhibition at 25 µM: HT-29, 25 µM of drug, read-out: DOSE SCREEN percentage (%) cell growth inhibition HT29 Colon
Procedure, shortened: as §2

Sequence of α-D-glucosidase (rice) (Q653V7 34-885): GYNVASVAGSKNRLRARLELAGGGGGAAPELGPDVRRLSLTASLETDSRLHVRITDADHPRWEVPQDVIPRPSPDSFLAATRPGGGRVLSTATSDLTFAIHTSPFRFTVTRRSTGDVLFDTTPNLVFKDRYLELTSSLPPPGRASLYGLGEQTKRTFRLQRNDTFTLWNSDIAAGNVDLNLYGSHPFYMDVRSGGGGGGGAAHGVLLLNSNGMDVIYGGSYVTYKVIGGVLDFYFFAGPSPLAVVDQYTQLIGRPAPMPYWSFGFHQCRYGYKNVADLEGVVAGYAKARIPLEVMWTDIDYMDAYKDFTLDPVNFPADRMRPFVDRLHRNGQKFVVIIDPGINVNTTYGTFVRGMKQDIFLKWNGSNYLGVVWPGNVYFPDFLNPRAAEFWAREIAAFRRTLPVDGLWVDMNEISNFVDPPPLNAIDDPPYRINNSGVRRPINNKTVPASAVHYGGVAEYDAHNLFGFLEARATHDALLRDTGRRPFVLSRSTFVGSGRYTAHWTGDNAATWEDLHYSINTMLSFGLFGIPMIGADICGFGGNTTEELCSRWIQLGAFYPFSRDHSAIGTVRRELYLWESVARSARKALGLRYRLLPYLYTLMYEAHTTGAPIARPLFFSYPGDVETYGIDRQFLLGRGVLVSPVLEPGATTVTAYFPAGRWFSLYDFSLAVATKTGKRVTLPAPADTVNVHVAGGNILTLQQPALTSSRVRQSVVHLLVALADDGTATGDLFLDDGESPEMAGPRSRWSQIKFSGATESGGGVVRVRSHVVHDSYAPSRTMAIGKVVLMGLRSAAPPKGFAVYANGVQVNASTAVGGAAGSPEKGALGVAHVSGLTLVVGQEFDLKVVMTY

N-(3-Hydroxyphenyl)-1,4-dideoxy-1,4-imino-L-gulitol [meta 7]
inhibition % Trehalase Porcine Kidney ([1]; at 100 μM): ^cNI ^d(0%)
inhibition % Trehalase Porcine Kidney ([1]; at 1000 μM): ^aNI ^b(1.9%)
inhibition % α-D-Galactosidase Coffee Beans ([2]; at 100 μM): ^cNI ^d(1.8%)
inhibition % α-D-Galactosidase Coffee Beans ([2]; at 1000 μM): ^aNI ^b(1.7%)
inhibition % α-D-Glucosidase Rat Intestinal Maltase ([3]; at 100 μM): ^cNI ^d(0%)
inhibition % α-D-Glucosidase Rat Intestinal Maltase ([3]; at 1000 μM): ^aNI ^b(7.2%)
inhibition % α-D-Glucosidase Rice ([4]; at 100 μM): ^cNI ^d(0%)
inhibition % α-D-Glucosidase Rice ([4]; at 1000 μM): ^aNI ^b(5.0%)
inhibition % α-D-Mannosidase Jack Bean ([5]; at 100 μM): ^cNI ^d(0%)
inhibition % α-D-Mannosidase Jack Bean ([5]; at 1000 μM): ^aNI ^b(0%)
inhibition % α-L-Rhamnosidase P. decumbens ([6]; at 100 μM): ^cNI ^d(3.8%)
inhibition % α-L-Rhamnosidase P. decumbens ([6]; at 1000 μM): ^aNI ^b(2.1%)
inhibition % β-D-Glucosidase Almond ([7]; at 100 μM): ^cNI ^d(0%)
inhibition % β-D-Glucosidase Almond ([7]; at 1000 μM): ^aNI ^b(9.6%)
inhibition % β-D-Glucosidase Bovine Liver ([8]; at 100 μM): ^cNI ^d(0%)
inhibition % β-D-Glucosidase Bovine Liver ([8]; at 1000 μM): ^aNI ^b(13.6%)
inhibition % β-D-Glucuronidase Bovine Liver ([9]; at 100 μM): ^cNI ^d(1.2%)
inhibition % β-D-Glucuronidase Bovine Liver ([9]; at 1000 μM): ^aNI ^b(0%)
inhibition % β-D-Mannosidase Snail ([10]; at 100 μM): ^cNI ^d(0%)
inhibition % β-D-Mannosidase Snail ([10]; at 1000 μM): ^aNI ^b(0%)
Sample Appearance [11]: In solution
DOSE SCREEN percentage (%) cell growth inhibition A2780 Ovarian ([12]; 72 h): 48 ± 7%
GI50 ([12]; 72 h): 30 ± 20 µM
DOSE SCREEN percentage (%) cell growth inhibition A431 Skin ([13]; 72 h): 56 ± 6%
GI50 ([13]; 72 h): 17 ± 8.5 µM
DOSE SCREEN percentage (%) cell growth inhibition H460 Lung ([14]; 72 h): 37 ± 3%
GI50 ([14]; 72 h): 47 ± 7 µM
DOSE SCREEN percentage (%) cell growth inhibition HT29 Colon ([15]; 72 h): 29 ± 1%
GI50 ([15]; 72 h): 50 µM

N[C@@H](Cc1ccc(B(O)O)cc1)C(=O)O [^10B-BPA, reference compound]
inhibition % Trehalase Porcine Kidney ([1]; at 100 μM): ^cNI ^d(0%)
inhibition % α-D-Galactosidase Coffee Beans ([2]; at 100 μM): ^cNI ^d(1.2%)
inhibition % α-D-Glucosidase Rat Intestinal Maltase ([3]; at 100 μM): ^cNI ^d(0%)
inhibition % α-D-Glucosidase Rice ([4]; at 100 μM): ^cNI ^d(0%)
inhibition % α-D-Mannosidase Jack Bean ([5]; at 100 μM): ^cNI ^d(0%)
inhibition % α-L-Rhamnosidase P. decumbens ([6]; at 100 μM): ^cNI ^d(0%)
inhibition % β-D-Glucosidase Almond ([7]; at 100 μM): ^cNI ^d(0%)
inhibition % β-D-Glucosidase Bovine Liver ([8]; at 100 μM): ^cNI ^d(14.2%)
inhibition % β-D-Glucuronidase Bovine Liver ([9]; at 100 μM): ^cNI ^d(0%)
inhibition % β-D-Mannosidase Snail ([10]; at 100 μM): ^cNI ^d(0.3%)
Sample Appearance [11]: Some in solution with undissolved sediment
DOSE SCREEN percentage (%) cell growth inhibition A2780 Ovarian ([12]; 72 h): * 8 ± 4%
DOSE SCREEN percentage (%) cell growth inhibition A431 Skin ([13]; 72 h): * 4 ± 4%
DOSE SCREEN percentage (%) cell growth inhibition H460 Lung ([14]; 72 h): * 8 ± 5%
DOSE SCREEN percentage (%) cell growth inhibition HT29 Colon ([15]; 72 h): * 15 ± 4%

CC1(C)O[C@H]2O[C@H]3[C@@H]([C@H]2O1)N(Cc1ccccc1B(O)O)C[C@H]3O [ortho 5]
inhibition % Trehalase Porcine Kidney ([1]; at 100 μM): ^cNI ^d(4.9%)
inhibition % α-D-Galactosidase Coffee Beans ([2]; at 100 μM): ^cNI ^d(8.5%)
inhibition % α-D-Glucosidase Rat Intestinal Maltase ([3]; at 100 μM): ^cNI ^d(0%)
inhibition at 100 µM ([4]; at 100 μM): 6.7%
inhibition % α-D-Mannosidase Jack Bean ([5]; at 100 μM): ^cNI ^d(12.9%)
inhibition % α-L-Rhamnosidase P. decumbens ([6]; at 100 μM): ^cNI ^d(0%)
inhibition % β-D-Glucosidase Almond ([7]; at 100 μM): ^cNI ^d(2.7%)
inhibition at 100 µM ([8]; at 100 μM): 13.4%
inhibition % β-D-Glucuronidase Bovine Liver ([9]; at 100 μM): ^cNI ^d(0%)
inhibition % β-D-Mannosidase Snail ([10]; at 100 μM): ^cNI ^d(7.0%)
Sample Appearance [11]: In solution
inhibition at 25 µM ([12]; Homo sapiens, 72 h): 19 ± 2%
GI50 ([12]; Homo sapiens, A2780, 72 h): > 50 µM
inhibition at 25 µM ([13]; Homo sapiens, 72 h): 9 ± 4%
GI50 ([13]; Homo sapiens, A-431, 72 h): > 50 µM
inhibition at 25 µM ([14]; Homo sapiens, 72 h): 2 ± 2%
GI50 ([14]; Homo sapiens, NCI-H460, 72 h): > 50 µM
inhibition at 25 µM ([15]; Homo sapiens, 72 h): 4 ± 4%
GI50 ([15]; Homo sapiens, HT-29, 72 h): > 50 µM

CC1(C)O[C@H]2O[C@H]3[C@@H]([C@H]2O1)N(Cc1cccc(B2OC(C)(C)C(C)(C)O2)c1)C[C@H]3O [meta 2, N-(3-Methylphenylboronic acid pinacol ester)-3,6-dideoxy-3,6-imino-1,2-O-isopropylidene-α-D-gulofuranose]
inhibition % Trehalase Porcine Kidney ([1]; at 100 μM): ^cNI ^d(0%)
inhibition % Trehalase Porcine Kidney ([1]; at 1000 μM): ^aNI ^b(5.8%)
inhibition % α-D-Galactosidase Coffee Beans ([2]; at 100 μM): ^cNI ^d(0%)
inhibition % α-D-Galactosidase Coffee Beans ([2]; at 1000 μM): ^aNI ^b(0%)
inhibition % α-D-Glucosidase Rat Intestinal Maltase ([3]; at 100 μM): ^cNI ^d(5.8%)
inhibition % α-D-Glucosidase Rat Intestinal Maltase ([3]; at 1000 μM): ^aNI ^b(12.4%)
inhibition at 100 µM ([4]; at 100 μM): 0%
inhibition at 1000 µM ([4]; at 1000 μM): 2.9%
inhibition % α-D-Mannosidase Jack Bean ([5]; at 100 μM): ^cNI ^d(7.5%)
inhibition % α-D-Mannosidase Jack Bean ([5]; at 1000 μM): ^aNI ^b(0%)
inhibition % α-L-Rhamnosidase P. decumbens ([6]; at 100 μM): ^cNI ^d(1.5%)
inhibition % α-L-Rhamnosidase P. decumbens ([6]; at 1000 μM): ^aNI ^b(0%)
inhibition % β-D-Glucosidase Almond ([7]; at 100 μM): ^cNI ^d(6.8%)
inhibition % β-D-Glucosidase Almond ([7]; at 1000 μM): ^aNI ^b(12.6%)
inhibition at 100 µM ([8]; at 100 μM): 0%
inhibition at 1000 µM ([8]; at 1000 μM): 32.7%
inhibition % β-D-Glucuronidase Bovine Liver ([9]; at 100 μM): ^cNI ^d(1.4%)
inhibition % β-D-Glucuronidase Bovine Liver ([9]; at 1000 μM): ^aNI ^b(10.7%)
inhibition % β-D-Mannosidase Snail ([10]; at 100 μM): ^cNI ^d(8.4%)
inhibition % β-D-Mannosidase Snail ([10]; at 1000 μM): ^aNI ^b(3.7%)
Sample Appearance [11]: In solution
inhibition at 25 µM ([12]; Homo sapiens, 72 h): 25 ± 2%
GI50 ([12]; Homo sapiens, A2780, 72 h): > 50 µM
inhibition at 25 µM ([13]; Homo sapiens, 72 h): 8 ± 6%
GI50 ([13]; Homo sapiens, A-431, 72 h): > 50 µM
inhibition at 25 µM ([14]; Homo sapiens, 72 h): 5 ± 2%
GI50 ([14]; Homo sapiens, NCI-H460, 72 h): > 50 µM
inhibition at 25 µM ([15]; Homo sapiens, 72 h): 1 ± 10%
GI50 ([15]; Homo sapiens, HT-29, 72 h): > 50 µM
